The values that follow come from patent US20180220646A1, “AMS-Free Adjuvants for Water Conditioning and Agricultural Formulations” (RHODIA OPERATIONS, priority 2017, published 2018).

Common to all, as to assay: Field plot weed control study, % control
Type in all cases: in vivo
Conditions in all cases: adjuvant use rate 1.0% wt/wt with glyphosate baseline

Experiment [1] relates to Amaranthus sp. (LIUSS). The method, then:
(§1) The efficacy evaluation was conducted by a field plot study with selected weeds. They are Linum sp. (AMSS), Amaranthus sp. (LIUSS), Helianthus sp. (HELSS), and Zea mays (ZEAMX). The field plot size is 400 square feet (10×40 ft), with three replications arranged in a randomized complete block design. Soil description: 15.3% sand, 53.9% silt, and 30.8% clay; Organic material content: 6.2%; pH: 7.5.
(§2) Product application was made using a backpack spray device, Blackout. Operation pressure: 40 psi. Nozzle: TT 11001; Spray volute: 8.5 gallon/acre.
(§3) Environmental condition during application: Air temperature—87 degree F.; Relative humidity—39%; Wind—NE, 5 mph; Soil temperature—71 degree F.; Cloud cover—50%.
(§4) Weeds were evaluated for percent control at 14 days and 28 days following application.
(§5) Sliding rating scale used: 0 indicating no control, up to 100 indicating complete control of weed species as compared to the untreated check.

The test system of experiment [2] is Helianthus sp. (HELSS). The method, then: as §1, §2, §3, §4, §5
In experiment [3] the test system is Linum sp. (AMSS). The method, then:
as §1, §2, §3, §4, §5

For experiment [4], the system named is Zea mays (ZEAMX). The method, then:
as §1, §2, §3, §4, §5

For the compound `C[N+](C)(C)C.C[N+](C)(C)C.O=S(=O)([O-])[O-]` [Tetramethylamine Sulfate], in experiment [1], the “% Control at 14 days LIUSS” value is listed as 46.7% and the “% Control at 28 days LIUSS” value worked out at 46.7%. In experiment [2], the “% Control at 14 days HELSS” value came to 86.7% and the “% Control at 28 days HELSS” value is 85%. Further, in experiment [3], the “% Control at 14 days AMSS” value is 51.7% and the “% Control at 28 days AMSS” value is on record as 58.3%. Besides, in experiment [4], the “% Control at 14 days ZEAMX” value is 56.7% and the “% Control at 28 days ZEAMX” value stood at 85%.
Turning to Choline Citrate, in experiment [1], the “% Control at 14 days LIUSS” value is 71.7% and the “% Control at 28 days LIUSS” value stood at 86.7%. Besides, in experiment [2], the “% Control at 14 days HELSS” value came out at 89.3% and the “% Control at 28 days HELSS” value is reported as 95%. In experiment [3], the “% Control at 14 days AMSS” value was 61.7% and the “% Control at 28 days AMSS” value amounted to 63.3%. Besides, in experiment [4], the “% Control at 14 days ZEAMX” value stood at 68.3% and the “% Control at 28 days ZEAMX” value is on record as 90%.
As to Choline etidronic acid, in experiment [1], the “% Control at 14 days LIUSS” value came to 76% and the “% Control at 28 days LIUSS” value was found to be 80%. Moreover, in experiment [2], the “% Control at 14 days HELSS” value is 91.7% and the “% Control at 28 days HELSS” value is 84%. Besides, in experiment [3], the “% Control at 14 days AMSS” value is 70% and the “% Control at 28 days AMSS” value worked out at 70%. Moreover, in experiment [4], the “% Control at 14 days ZEAMX” value stood at 65% and the “% Control at 28 days ZEAMX” value is listed as 66.7%.
In the case of Choline salt of Sulfuric Acid, in experiment [1], the “% Control at 14 days LIUSS” value was found to be 40% and the “% Control at 28 days LIUSS” value was found to be 43.3%. Moreover, in experiment [2], the “% Control at 14 days HELSS” value was found to be 88.3% and the “% Control at 28 days HELSS” value was 95%. Further, in experiment [3], the “% Control at 14 days AMSS” value is recorded as 70% and the “% Control at 28 days AMSS” value came out at 70%. In experiment [4], the “% Control at 14 days ZEAMX” value is 55% and the “% Control at 28 days ZEAMX” value amounted to 83.3%.
